System: New Zealand White rabbits
Assay: Intraocular pressure (IOP) in rabbits, topical dosing four times daily
Format: in vivo
Description: Seventy-five rabbits underwent two weeks of IOP training to condition them for IOP measurement. IOP was determined for both eyes of each animal using a Medtronic Solan, Model 30 classic pneumatonometer. Proparacaine hydrochloride 0.5% (1 drop) was delivered to each eye prior to IOP measurement. A two-point diurnal curve was established: IOP was recorded on Monday, Wednesday, and Friday of each week, at 8 a.m. and 12 p.m., with a ±1 hour range for each of these times. The time of the measurements was recorded.
On Days 1-31, animals received daily topical doses of the appropriate test article into the right eye. Animals were dosed four times per day, with doses administered 2 hours apart. Doses were administered using a calibrated 50-μL pipette. The eyelids were held close for 10 seconds immediately following dosing. The time of each dose administration was recorded.
Intraocular pressure (“IOP”) was determined for both eyes of each animal on Days 3, 5, 10, 12, 16, 18, 22, 24, 26, 30, and 32. IOP was evaluated with a Medtronic Solan, Model 30 classic pneumatonometer. Proparacaine hydrochloride 0.5% (1 drop) was delivered to each eye prior to IOP measurement. IOP was measured on Monday, Wednesday, and Friday of each week. A two-point diurnal curve was established: IOP was recorded at 8 a.m. and 12 p.m. on Day 3, and at 8 a.m. and 2 p.m. on later days, with a ±1 hour range for each of these times. The time of the measurements was recorded.
Descriptive statistics were prepared for IOP data of each treatment group (left and right eyes separately) at each measurement interval. The statistics included the number of observations (“N”), mean, standard deviation (“STD”), and standard error (“SEM”). Statistical analyses were conducted on IOP results using Statistical Analysis Systems (SAS Institute, Inc., Cary, N.C., V8.0). Parameters were evaluated using analysis of variance/GLM Procedure followed by Tukey's Standardized Range Test (Tukey, 1985) for post hoc comparisons of group means. The level of significance was set at a probability of p<0.05 for all statistical procedures. Group IOP means were compared at each interval, with left and right eyes compared separately.

Cc1ccc2c(NCC(O)(CC(C)(C)c3cc(F)cc4c3OCC4)C(F)(F)F)cccc2n1 (stereo not shown)
Intraocular Pressure (MEAN) (treated right eyes, A.M. readings, Day 32, 1 mg/g (Group D)): 24.9 mmHg | Intraocular Pressure (MEAN) (treated right eyes, A.M. readings, Day 32, 5 mg/g (Group C)): 23.4 mmHg | Intraocular Pressure (MEAN) (treated right eyes, A.M. readings, Day 32, 10 mg/g (Group B)): 23.9 mmHg | Intraocular Pressure (MEAN) (treated right eyes, A.M. readings, Pre-Study, 1 mg/g (Group D)): 24.4 mmHg | Intraocular Pressure (MEAN) (treated right eyes, A.M. readings, Pre-Study, 5 mg/g (Group C)): 24.8 mmHg | Intraocular Pressure (MEAN) (treated right eyes, A.M. readings, Pre-Study, 10 mg/g (Group B)): 24.0 mmHg | Intraocular Pressure (MEAN) (treated right eyes, P.M. readings, Day 3, 1 mg/g (Group D)): 24.7 mmHg | Intraocular Pressure (MEAN) (treated right eyes, P.M. readings, Day 3, 5 mg/g (Group C)): 23.6 mmHg | Intraocular Pressure (MEAN) (treated right eyes, P.M. readings, Day 3, 10 mg/g (Group B)): 23.1 mmHg | Intraocular Pressure (MEAN) (treated right eyes, P.M. readings, Day 5, 1 mg/g (Group D)): 25.5 mmHg | Intraocular Pressure (MEAN) (treated right eyes, P.M. readings, Day 5, 5 mg/g (Group C)): 24.8 mmHg | Intraocular Pressure (MEAN) (treated right eyes, P.M. readings, Day 5, 10 mg/g (Group B)): 25.7 mmHg | Intraocular Pressure (MEAN) (treated right eyes, P.M. readings, Day 10, 1 mg/g (Group D)): 25.3 mmHg | Intraocular Pressure (MEAN) (treated right eyes, P.M. readings, Day 10, 5 mg/g (Group C)): 25.6 mmHg | Intraocular Pressure (MEAN) (treated right eyes, P.M. readings, Day 10, 10 mg/g (Group B)): 24.3 mmHg | Intraocular Pressure (MEAN) (treated right eyes, P.M. readings, Day 12, 1 mg/g (Group D)): 24.0 mmHg | Intraocular Pressure (MEAN) (treated right eyes, P.M. readings, Day 12, 5 mg/g (Group C)): 23.4 mmHg | Intraocular Pressure (MEAN) (treated right eyes, P.M. readings, Day 12, 10 mg/g (Group B)): 23.8 mmHg | Intraocular Pressure (MEAN) (treated right eyes, P.M. readings, Day 16, 1 mg/g (Group D)): 22.0 mmHg | Intraocular Pressure (MEAN) (treated right eyes, P.M. readings, Day 16, 5 mg/g (Group C)): 21.4 mmHg | Intraocular Pressure (MEAN) (treated right eyes, P.M. readings, Day 16, 10 mg/g (Group B)): 21.6 mmHg | Intraocular Pressure (MEAN) (treated right eyes, P.M. readings, Day 18, 1 mg/g (Group D)): 23.1 mmHg | Intraocular Pressure (MEAN) (treated right eyes, P.M. readings, Day 18, 5 mg/g (Group C)): 21.6 mmHg | Intraocular Pressure (MEAN) (treated right eyes, P.M. readings, Day 18, 10 mg/g (Group B)): 22.5 mmHg | Intraocular Pressure (MEAN) (treated right eyes, P.M. readings, Day 22, 1 mg/g (Group D)): 22.5 mmHg | Intraocular Pressure (MEAN) (treated right eyes, P.M. readings, Day 22, 5 mg/g (Group C)): 22.8 mmHg | Intraocular Pressure (MEAN) (treated right eyes, P.M. readings, Day 22, 10 mg/g (Group B)): 23.1 mmHg | Intraocular Pressure (MEAN) (treated right eyes, P.M. readings, Day 24, 1 mg/g (Group D)): 23.6 mmHg | Intraocular Pressure (MEAN) (treated right eyes, P.M. readings, Day 24, 5 mg/g (Group C)): 23.4 mmHg | Intraocular Pressure (MEAN) (treated right eyes, P.M. readings, Day 24, 10 mg/g (Group B)): 22.8 mmHg | Intraocular Pressure (MEAN) (treated right eyes, P.M. readings, Day 26, 1 mg/g (Group D)): 22.6 mmHg | Intraocular Pressure (MEAN) (treated right eyes, P.M. readings, Day 26, 5 mg/g (Group C)): 22.2 mmHg | Intraocular Pressure (MEAN) (treated right eyes, P.M. readings, Day 26, 10 mg/g (Group B)): 20.9 mmHg | Intraocular Pressure (MEAN) (treated right eyes, P.M. readings, Day 30, 10 mg/g (Group B)): 22.4 mmHg | Intraocular Pressure (MEAN) (untreated left eyes, P.M. readings, Day 3, 1 mg/g (Group D)): 25.0 mmHg | Intraocular Pressure (MEAN) (untreated left eyes, P.M. readings, Day 3, 5 mg/g (Group C)): 23.9 mmHg | Intraocular Pressure (MEAN) (untreated left eyes, P.M. readings, Day 3, 10 mg/g (Group B)): 23.3 mmHg | Intraocular Pressure (MEAN) (untreated left eyes, P.M. readings, Day 5, 1 mg/g (Group D)): 24.7 mmHg | Intraocular Pressure (MEAN) (untreated left eyes, P.M. readings, Day 5, 5 mg/g (Group C)): 24.8 mmHg | Intraocular Pressure (MEAN) (untreated left eyes, P.M. readings, Day 5, 10 mg/g (Group B)): 25.2 mmHg | Intraocular Pressure (MEAN) (untreated left eyes, P.M. readings, Day 10, 1 mg/g (Group D)): 24.9 mmHg | Intraocular Pressure (MEAN) (untreated left eyes, P.M. readings, Day 10, 5 mg/g (Group C)): 24.6 mmHg | Intraocular Pressure (MEAN) (untreated left eyes, P.M. readings, Day 10, 10 mg/g (Group B)): 23.5 mmHg | Intraocular Pressure (MEAN) (untreated left eyes, P.M. readings, Day 12, 1 mg/g (Group D)): 23.7 mmHg | Intraocular Pressure (MEAN) (untreated left eyes, P.M. readings, Day 12, 5 mg/g (Group C)): 23.3 mmHg | Intraocular Pressure (MEAN) (untreated left eyes, P.M. readings, Day 12, 10 mg/g (Group B)): 24.1 mmHg | Intraocular Pressure (MEAN) (untreated left eyes, P.M. readings, Day 16, 1 mg/g (Group D)): 21.9 mmHg | Intraocular Pressure (MEAN) (untreated left eyes, P.M. readings, Day 16, 5 mg/g (Group C)): 20.4 mmHg | Intraocular Pressure (MEAN) (untreated left eyes, P.M. readings, Day 16, 10 mg/g (Group B)): 21.4 mmHg | Intraocular Pressure (MEAN) (untreated left eyes, P.M. readings, Day 18, 1 mg/g (Group D)): 22.7 mmHg | Intraocular Pressure (MEAN) (untreated left eyes, P.M. readings, Day 18, 5 mg/g (Group C)): 21.9 mmHg | Intraocular Pressure (MEAN) (untreated left eyes, P.M. readings, Day 18, 10 mg/g (Group B)): 22.1 mmHg | Intraocular Pressure (MEAN) (untreated left eyes, P.M. readings, Day 22, 1 mg/g (Group D)): 22.1 mmHg | Intraocular Pressure (MEAN) (untreated left eyes, P.M. readings, Day 22, 5 mg/g (Group C)): 22.1 mmHg | Intraocular Pressure (MEAN) (untreated left eyes, P.M. readings, Day 22, 10 mg/g (Group B)): 22.6 mmHg | Intraocular Pressure (MEAN) (untreated left eyes, P.M. readings, Day 24, 1 mg/g (Group D)): 22.9 mmHg | Intraocular Pressure (MEAN) (untreated left eyes, P.M. readings, Day 24, 5 mg/g (Group C)): 22.2 mmHg | Intraocular Pressure (MEAN) (untreated left eyes, P.M. readings, Day 24, 10 mg/g (Group B)): 22.8 mmHg | Intraocular Pressure (MEAN) (untreated left eyes, P.M. readings, Day 26, 1 mg/g (Group D)): 22.1 mmHg | Intraocular Pressure (MEAN) (untreated left eyes, P.M. readings, Day 26, 5 mg/g (Group C)): 22.3 mmHg | Intraocular Pressure (MEAN) (untreated left eyes, P.M. readings, Day 26, 10 mg/g (Group B)): 21.4 mmHg | Intraocular Pressure (MEAN) (untreated left eyes, P.M. readings, Day 30, 1 mg/g (Group D)): 21.3 mmHg | Intraocular Pressure (MEAN) (untreated left eyes, P.M. readings, Day 30, 5 mg/g (Group C)): 20.9 mmHg | Intraocular Pressure (MEAN) (untreated left eyes, P.M. readings, Day 30, 10 mg/g (Group B)): 21.7 mmHg | Intraocular Pressure (MEAN) (untreated left eyes, P.M. readings, Day 32, 1 mg/g (Group D)): 21.9 mmHg | Intraocular Pressure (MEAN) (untreated left eyes, P.M. readings, Day 32, 5 mg/g (Group C)): 21.5 mmHg | Intraocular Pressure (MEAN) (untreated left eyes, P.M. readings, Day 32, 10 mg/g (Group B)): 22.6 mmHg | Intraocular Pressure (MEAN) (untreated left eyes, P.M. readings, Pre-Study, 1 mg/g (Group D)): 24.2 mmHg | Intraocular Pressure (MEAN) (untreated left eyes, P.M. readings, Pre-Study, 5 mg/g (Group C)): 24.4 mmHg | Intraocular Pressure (MEAN) (untreated left eyes, P.M. readings, Pre-Study, 10 mg/g (Group B)): 23.9 mmHg

Reference: patent US20080058373A1, “Compositions and Methods for Treating or Preventing Glaucoma or Progression Thereof” (priority 2006, published 2008)
